Biological target: BRD4 (Homo sapiens, UniProt O60885)
Experiment: Time Resolved Fluorescence Resonance Energy Transfer (TR-FRET) binding assay, BRD4
Conditions: FRET BRD4 IC50 (nM), one of the FRET assays described

Row | SMILES | IC50 [nM]
1 | [2H]C([2H])([2H])c1onc(C)c1-c1cnc2c3ccc(C(C)(C)O)cc3n([C@H](c3ccc(F)cc3)C3CCOCC3)c2c1 [Example 284, 2-{5-[(S)-(4-Fluorophenyl)(oxan-4-yl)methyl]-3-[5-(^2H3)methyl-3-methyl-1,2-oxazol-4-yl]-5H-pyrido[3,2-b]indol-7-yl}propan-2-ol] | < 5

Same assay, conditions: one of the FRET assays described; read-out: FRET BRD4 IC50

Row | SMILES | IC50 [nM]
2 | [2H]C([2H])([2H])c1nnn(C)c1-c1cnc2c3c(OCC(F)F)ccc(S(C)(=O)=O)c3n(C(c3ncccc3F)C3CCOCC3)c2c1 (stereo not shown) [Example 246, 2-{[9-(2,2-Difluoroethoxy)-6-methanesulfonyl-3-[4-(^2H3)methyl-1-methyl-1H-1,2,3-triazol-5-yl]-5H-pyrido[3,2-b]indol-5-yl](oxan-4-yl)methyl}-3-fluoropyridine] | < 1500
3 | [2H]C([2H])([2H])c1nnn(C)c1-c1cnc2c3c(OCC(C)(F)F)ccc(S(C)(=O)=O)c3n(C(c3ncccc3F)C3CCOCC3)c2c1 (stereo not shown) [Example 247, 2-{[9-(2,2-Difluoropropoxy)-6-methanesulfonyl-3-[4-(^2H3)methyl-1-methyl-1H-1,2,3-triazol-5-yl]-5H-pyrido[3,2-b]indol-5-yl](oxan-4-yl)methyl}-3-fluoropyridine] | < 5
4 | [2H]C([2H])([2H])c1nnn(C)c1-c1cnc2c3c(OCC(C)(F)F)ccc(S(C)(=O)=O)c3n(C(c3ncccc3F)C3CCOCC3)c2c1 (stereo not shown) [Example 248, 2-{[9-(2,2-Difluoropropoxy)-6-methanesulfonyl-3-[4-(^2H3)methyl-1-methyl-1H-1,2,3-triazol-5-yl]-5H-pyrido[3,2-b]indol-5-yl](oxan-4-yl)methyl}-3-fluoropyridine] | < 1500
5 | Cc1noc(C)c1-c1cnc2c3ccc(CC(C)(C)O)cc3n([C@H](c3ccccc3)C3CCOCC3)c2c1 [Example 252, 1-[3-(Dimethyl-1,2-oxazol-4-yl)-5-[(S)-oxan-4-yl(phenyl)methyl]-5H-pyrido[3,2-b]indol-7-yl]-2-methylpropan-2-ol] | < 5
6 | Cc1nnn(C)c1-c1cnc2c3cc(CC(C)(C)O)ccc3n([C@H](c3ccccc3)C3CCOCC3)c2c1 [Example 255, 1-[3-(Dimethyl-1H-1,2,3-triazol-5-yl)-5-[(S)-oxan-4-yl(phenyl)methyl]-5H-pyrido[3,2-b]indol-8-yl]-2-methylpropan-2-ol] | < 5
7 | Cc1nnn(C)c1-c1cnc2c3ccc(CC(C)(C)O)cc3n([C@H](c3ccc(F)cc3)C3CCOCC3)c2c1 [Example 256, 1-[3-(Dimethyl-1H-1,2,3-triazol-5-yl)-5-[(S)-(4-fluorophenyl)(oxan-4-yl)methyl]-5H-pyrido[3,2-b]indol-7-yl]-2-methylpropan-2-ol] | < 5
8 | Cc1nnn(C)c1-c1cnc2c3c(S(C)(=O)=O)cccc3n([C@H](c3ccc(F)cc3)C3CCOCC3)c2c1 [Example 257, 5-{5-[(S)-(4-Fluorophenyl)(oxan-4-yl)methyl]-9-methanesulfonyl-5H-pyrido[3,2-b]indol-3-yl}-1,4-dimethyl-1H-1,2,3-triazole] | < 5
9 | Cc1nnn(C)c1-c1cnc2c3c(S(C)(=O)=O)cccc3n([C@H](c3ccccc3)C3CCOCC3)c2c1 [Example 259, 5-{9-Methanesulfonyl-5-[(S)-oxan-4-yl(phenyl)methyl]-5H-pyrido[3,2-b]indol-3-yl}-1,4-dimethyl-1H-1,2,3-triazole] | < 5
10 | COc1cc(C(C)(C)O)cc2c1c1ncc(-c3c(C)nnn3C)cc1n2[C@H](c1ccccc1)C1CCOCC1 [Example 260, 2-[3-(Dimethyl-1H-1,2,3-triazol-5-yl)-9-methoxy-5-[(S)-oxan-4-yl(phenyl)methyl]-5H-pyrido[3,2-b]indol-7-yl]propan-2-ol] | < 5
11 | Cc1nnn(C)c1-c1cnc2c3ccc(CC(C)(C)O)cc3n([C@H](c3ccccc3)C3CCOCC3)c2c1 [Example 261, 1-[3-(Dimethyl-1H-1,2,3-triazol-5-yl)-5-[(S)-oxan-4-yl(phenyl)methyl]-5H-pyrido[3,2-b]indol-7-yl]-2-methylpropan-2-ol] | < 5
12 | [2H]C([2H])([2H])c1nnn(C)c1-c1cnc2c3ccc(C(C)(C)O)cc3n([C@H](c3ccccc3)C3CCOCC3)c2c1 [Example 262, 2-{3-[4-(^2H3)Methyl-1-methyl-1H-1,2,3-triazol-5-yl]-5-[(S)-oxan-4-yl(phenyl)methyl]-5H-pyrido[3,2-b]indol-7-yl}propan-2-ol] | < 5
13 | Cc1nnn(C)c1-c1cnc2c3ccc(S(C)(=O)=O)cc3n([C@H](c3ccccc3F)C3CCOCC3)c2c1 [Example 264] | < 5
14 | [2H]C([2H])([2H])c1nnn(C)c1-c1cnc2c3c(S(C)(=O)=O)cccc3n([C@H](c3ccccc3)C3CCOCC3)c2c1 [Example 268, 5-{9-Methanesulfonyl-5-[(S)-oxan-4-yl(phenyl)methyl]-5H-pyrido[3,2-b]indol-3-yl}-4-(^2H3)methyl-1-methyl-1H-1,2,3-triazole] | < 5
15 | Cc1nnn(C)c1-c1cnc2c3c(S(C)(=O)=O)cccc3n([C@H](c3ccccc3F)C3CCOCC3)c2c1 [Example 269] | < 5
16 | [2H]C([2H])([2H])c1nnn(C)c1-c1cnc2c3ccc(C(C)(C)O)c(F)c3n([C@H](c3ccc(F)cc3)C3CCOCC3)c2c1 [Example 271, 2-{6-Fluoro-5-[(S)-(4-fluorophenyl)(oxan-4-yl)methyl]-3-[4-(^2H3)methyl-1-methyl-1H-1,2,3-triazol-5-yl]-5H-pyrido[3,2-b]indol-7-yl}propan-2-ol] | < 5
17 | [2H]C([2H])([2H])c1nnn(C)c1-c1cnc2c3ccc(C(C)(C)O)c(F)c3n([C@H](c3ccccc3F)C3CCOCC3)c2c1 [Example 272, 2-{6-Fluoro-5-[(S)-(2-fluorophenyl)(oxan-4-yl)methyl]-3-[4-(^2H3)methyl-1-methyl-1H-1,2,3-triazol-5-yl]-5H-pyrido[3,2-b]indol-7-yl}propan-2-ol] | < 5
18 | [2H]C([2H])([2H])c1nnn(C)c1-c1cnc2c3c(OC)cc(C(C)(C)O)cc3n([C@H](c3ccccc3)C3CCOCC3)c2c1 [Example 273, 2-{9-Methoxy-3-[4-(^2H3)methyl-1-methyl-1H-1,2,3-triazol-5-yl]-5-[(S)-oxan-4-yl(phenyl)methyl]-5H-pyrido[3,2-b]indol-7-yl}propan-2-ol] | < 5
19 | COc1cc(C(C)(C)O)cc2c1c1ncc(-c3c(C)nnn3C)cc1n2[C@H](c1ccccc1F)C1CCOCC1 [Example 274] | < 5
20 | [2H]C([2H])([2H])c1nnn(C)c1-c1cnc2c3cc(F)c(C(C)(C)O)cc3n([C@H](c3ccc(F)cc3)C3CCOCC3)c2c1 [Example 277, 2-{8-Fluoro-5-[(S)-(4-fluorophenyl)(oxan-4-yl)methyl]-3-[4-(^2H3)methyl-1-methyl-1H-1,2,3-triazol-5-yl]-5H-pyrido[3,2-b]indol-7-yl}propan-2-ol] | < 5
21 | [2H]C([2H])([2H])c1nnn(C)c1-c1cnc2c3ccc(C(C)(C)O)cc3n(C(c3ccc(F)cc3F)C3CCOCC3)c2c1 (stereo not shown) [Example 280, 2-{5-[(2,4-Difluorophenyl)(oxan-4-yl)methyl]-3-[4-(^2H3)methyl-1-methyl-1H-1,2,3-triazol-5-yl]-5H-pyrido[3,2-b]indol-7-yl}propan-2-ol] | < 5
22 | [2H]C([2H])([2H])c1nnn(C)c1-c1cnc2c3ccc(C(C)(C)O)cc3n(C(c3ccc(F)cc3F)C3CCOCC3)c2c1 (stereo not shown) [Example 281, 2-{5-[(2,4-Difluorophenyl)(oxan-4-yl)methyl]-3-[4-(^2H3)methyl-1-methyl-1H-1,2,3-triazol-5-yl]-5H-pyrido[3,2-b]indol-7-yl}propan-2-ol] | < 5
23 | [2H]C([2H])([2H])c1nnn(C)c1-c1cnc2c3ccc(C(C)(C)O)c(F)c3n(C(c3ccc(F)cc3F)C3CCOCC3)c2c1 (stereo not shown) [Example 282, 2-{5-[(2,4-Difluorophenyl)(oxan-4-yl)methyl]-6-fluoro-3-[4-(^2H3)methyl-1-methyl-1H-1,2,3-triazol-5-yl]-5H-pyrido[3,2-b]indol-7-yl}propan-2-ol] | < 5
24 | [2H]C([2H])([2H])c1nnn(C)c1-c1cnc2c3ccc(C(C)(C)O)c(F)c3n(C(c3ccc(F)cc3F)C3CCOCC3)c2c1 (stereo not shown) [Example 283, 2-{5-[(2,4-Difluorophenyl)(oxan-4-yl)methyl]-6-fluoro-3-[4-(^2H3)methyl-1-methyl-1H-1,2,3-triazol-5-yl]-5H-pyrido[3,2-b]indol-7-yl}propan-2-ol] | < 5
25 | [2H]C([2H])([2H])c1onc(C)c1-c1cnc2c3ccc(C(C)(C)O)cc3n([C@H](c3ccccc3F)C3CCOCC3)c2c1 [Example 285, 2-{5-[(S)-(2-Fluorophenyl)(oxan-4-yl)methyl]-3-[5-(^2H3)methyl-3-methyl-1,2-oxazol-4-yl]-5H-pyrido[3,2-b]indol-7-yl}propan-2-ol] | < 5
26 | COc1cnccc1C(C1CCOCC1)n1c2cc(C(C)(C)O)ccc2c2ncc(-c3c(C)nnn3C)cc21 (stereo not shown) [Example 291] | < 5
27 | [2H]C([2H])([2H])c1nnn(C)c1-c1cnc2c3ccc(C(C)(C)O)cc3n(C(c3cc(C)on3)C3CCOCC3)c2c1 (stereo not shown) [Example 308, 2-{5-[(5-Methyl-1,2-oxazol-3-yl)(oxan-4-yl)methyl]-3-[4-(^2H3)methyl-1-methyl-1H-1,2,3-triazol-5-yl]-5H-pyrido[3,2-b]indol-7-yl}propan-2-ol] | < 5
28 | [2H]C([2H])([2H])c1nnn(C)c1-c1cnc2c3ccc(C(C)(C)O)cc3n(C(c3cc(C)on3)C3CCOCC3)c2c1 (stereo not shown) [Example 309, 2-{5-[(5-Methyl-1,2-oxazol-3-yl)(oxan-4-yl)methyl]-3-[4-(^2H3)methyl-1-methyl-1H-1,2,3-triazol-5-yl]-5H-pyrido[3,2-b]indol-7-yl}propan-2-ol] | < 25
29 | [2H]c1c(C([2H])(C2CCOCC2)n2c3cc(C(C)(C)O)ccc3c3ncc(-c4c(C)noc4C([2H])([2H])[2H])cc32)noc1C([2H])([2H])[2H] (stereo not shown) [Example 327] | < 5
30 | [2H]c1c(C([2H])(C2CCOCC2)n2c3cc(C(C)(C)O)ccc3c3ncc(-c4c(C)noc4C([2H])([2H])[2H])cc32)noc1C([2H])([2H])[2H] (stereo not shown) [Example 328] | < 25
31 | [2H]C([2H])([2H])c1nnn(C)c1-c1cnc2c3cc(F)c(C(C)(O)C4CC4)cc3n(C(c3cc(C)on3)C3CCOCC3)c2c1 (stereo not shown) [Example 329] | < 25
